Our source for the EC (150% of control) and melting point values is patent US9464049B2, “Indole-carboxamides” (Hoffmann-La Roche Inc., priority 2013, dated 2016).

Data set [1] relates to human embryonic stem cell derived neural stem cells (NSCs). Briefly: Neural stem cell proliferation assay (neurogenesis assay, ATP levels by CellTiterGlo). It is filed as cell-based. The settings on record: compound concentration at which 150% activity of control (100%) is reached, NSC proliferation by ATP (CellTiterGlo) after 4 days incubation, dose response 8 μM to 8 nM. Here is the method: Neural Stem Cell Proliferation Assay
Neurogenic properties of small molecules are determined based on the proliferation of human embryonic stem cell derived neural stem cells (NSCs) which were derived via a dual smad inhibition as previously described (Chambers, S. M., et al., Highly efficient neural conversion of human ES and iPS cells by dual inhibition of SMAD signaling, Nature biotechnology, 2009. 27(3): p. 275-80.)
Compounds respond is measured by the increase in cells based on ATP levels (Promega:CellTiterGlo®) after an incubation period of 4 days.
NSCs are thawed and expanded over 3 passages. On the 14th day, NSCs are seeded in Polyornithin/Laminin coated 384 well plates at a cell density of 21,000 cells/cm^2 in a media volume of 38 μl.
4 hours after cell seeding, compound solutions are added at a volume of 2 μl. Stock solutions of the compounds (water, 5% DMSO) are diluted to obtain a dose response (11 points, dilution factor is 2), ranging from 8 μM to 8 nM. Controls are run to consistently determine the neurogenic properties of the cells: • Negative (neutral) control is cell culture Media (final DMSO concentration: 0.25%). • Positive controls are: • 1. cell culture Media+100 ng/ml FGF2 (final DMSO concentration: 0.1%) • 2. cell culture Media+20 ng/ml EGF (final DMSO concentration: 0.1%) • 3. cell culture Media+100 ng/ml Wnt3a (final DMSO concentration: 0.1%)
After 4 days incubation at 37° C., 5% CO2, the amount of ATP per well is quantified. The ATP concentration is proportional to the cell number. ATP is quantified by using the Promega CellTiterGlo® kit. The CellTiterGlo® reagents contain a cell lysis buffer, a thermo stable luciferase (UltraGlo™ recombinant luciferase), magnesium and luciferin. Luciferin reacts with ATP producing oxyluciferin, AMP and light. The luminescence signal is proportional to the ATP content.
The value of negative (neutral) control is determined for each assay plate by taking the average of 16 negative control wells. The neurogenic compound response is calculated for each compound as (compound/Negative Control)*100.
The values of EC150 from the dose response curve are determined for each test compound. The EC150 is the compound concentration at which 150% activity of control (100%) is reached.

The mark [2] stands for this setting: Homo sapiens, Neural stem cell, 96 h.

For the compound “5-Cyano-7-3,4-difluorophenyl)-1H-indole-2-carboxamide [Example 33]”, in data set [1], the EC (150% of control) is 0.056 µM.
On to `Cc1c(C(N)=O)n(C)c2c(-c3ccc(Cl)cc3)cc(C#N)cc12` [Example 1, 7-(4-Chloro-phenyl)-5-cyano-1,3-dimethylindole-2-carboxamide], for which the melting point (commonly the temperature, or range, at which the solid turns liquid) amounted to 237 °C. Moreover, the EC (150% of control) in data set [1] (setting [2]) stood at 0.14 µM.
The compound `Cn1c(C(N)=O)cc2cc(F)cc(-c3ccc(F)cc3)c21` [Example 2, 5-Fluoro-7-(4-fluoro-phenyl)-1-methylindole-2-carboxamide] yielded a melting point of 156 °C. This compound yielded an EC (150% of control) in data set [1] (setting [2]) of 1.4 µM.
In turn, `NC(=O)c1cc2cc(F)cc(-c3ccc(F)cc3)c2[nH]1` [Example 3, 5-Fluoro-7-(4-fluoro-phenyl)-1H-indole-2-carboxamide] had a melting point of 162 °C. This compound also showed an EC (150% of control) in data set [1] (setting [2]) of 0.18 µM.
Compound `Cc1c(C(N)=O)n(C)c2c(-c3ccc(F)cc3)cc(C#N)cc12` [Example 4, 5-Cyano-7-(4-fluorophenyl)-1,3-dimethylindole-2-carboxamide] displayed a melting point of 216 °C. Also, the EC (150% of control) in data set [1] (setting [2]) was 0.21 µM.
`Cc1c(C(N)=O)n(C)c2c(-c3ccc(F)c(F)c3)cc(C#N)cc12` [Example 5, 5-Cyano-7-(3,4-difluorophenyl)-1,3-dimethylindole-2-carboxamide] had a melting point of 212 °C. In data set [1] (setting [2]), this compound came in with an EC (150% of control) of 0.35 µM.
Compound `Cc1c(C(N)=O)n(C)c2c(-c3ccc(C(F)(F)F)cc3)cc(C#N)cc12` [Example 6, 5-Cyano-1,3-dimethyl-7-[4-(trifluoromethyl)-phenyl]-indole-2-carboxamide] displayed a melting point of 195 °C. In data set [1] (setting [2]), this compound had an EC (150% of control) of 2.7 µM.
In the case of `Cc1c(C(N)=O)[nH]c2c(-c3ccc(F)c(F)c3)cc(C#N)cc12` [Example 7, 5-Cyano-7-(3,4-difluorophenyl)-3-methyl-1H-indole-2-carboxamide], the melting point stood at 222 °C. For the same compound, the EC (150% of control) in data set [1] (setting [2]) came to 0.3 µM.
The compound `Cc1c(C(N)=O)[nH]c2c(-c3ccc(C(F)(F)F)cc3)cc(C#N)cc12` [Example 8, 5-Cyano-3-methyl-7-[4-(trifluoromethyl)phenyl]-1H-indole-2-carboxamide] displayed a melting point of 243 °C. In data set [1] (setting [2]), this compound had an EC (150% of control) of 0.4 µM.
With `Cc1c(C(N)=O)[nH]c2c(-c3ccc(F)cc3)cc(C#N)cc12` [Example 9, 5-Cyano-7-(4-fluorophenyl)-3-methyl-1H-indole-2-carboxamide], the melting point was found to be 268 °C. The compound further had an EC (150% of control) in data set [1] (setting [2]) of 0.22 µM.
Taken in the same sequence, the figures for `Cc1c(C(N)=O)[nH]c2c(-c3ccc(Cl)cc3)cc(C#N)cc12` [Example 10, 7-(4-Chlorophenyl)-5-cyano-3-methyl-1H-indole-2-carboxamide] were 291 °C and 0.21 µM.
For `Cc1c(C(N)=O)[nH]c2c(-c3ccc(F)cc3)cc(Cl)cc12` [Example 11, 5-Chloro-7-(4-fluorophenyl)-3-methyl-1H-indole-2-carboxamide], the melting point worked out at 173 °C. The compound also returned an EC (150% of control) in data set [1] (setting [2]) of 0.22 µM.
Taken in the same sequence, the figures for `Cc1c(C(N)=O)[nH]c2c(-c3ccc(Cl)cc3)cc(Cl)cc12` [Example 12, 5-Chloro-7-(4-chlorophenyl)-3-methyl-1H-indole-2-carboxamide] were 252 °C and 0.31 µM.
For `Cc1c(C(N)=O)n(C)c2c(-c3ccc(F)cc3)cc(Cl)cc12` [Example 13, 5-Chloro-7-(4-fluorophenyl)-1,3-dimethylindole-2-carboxamide], the melting point amounted to 178 °C. The EC (150% of control) in data set [1] (setting [2]) was 1.64 µM.
As to `Cc1c(C(N)=O)n(C)c2c(-c3ccc(Cl)cc3)cc(Cl)cc12` [Example 14, 5-Chloro-7-(4-chlorophenyl)-1,3-dimethylindole-2-carboxamide], the melting point turned out to be 195 °C. This compound also returned an EC (150% of control) in data set [1] (setting [2]) of 0.84 µM.
`Cc1c(C(N)=O)[nH]c2c(-c3ccc(F)c(F)c3)cc(Cl)cc12` [Example 15, 5-Chloro-7-(3,4-difluorophenyl)-3-methyl-1H-indole-2-carboxamide] gave a melting point of 206 °C. The EC (150% of control) in data set [1] (setting [2]) came to 0.64 µM.
`Cc1c(C(N)=O)[nH]c2c(-c3ccc(C(F)(F)F)cc3)cc(Cl)cc12` [Example 16, 5-Chloro-3-methyl-7-[4-(trifluoromethyl)-phenyl]-1H-indole-2-carboxamide] had a melting point of 184 °C. In data set [1] (setting [2]), the EC (150% of control) worked out at 0.75 µM.
For the compound `Cc1c(C(N)=O)n(C)c2c(-c3ccc(F)c(F)c3)cc(Cl)cc12` [Example 17, 5-Chloro-7-(3,4-difluorophenyl)-1,3-dimethylindole-2-carboxamide], the melting point amounted to 196 °C. This compound also yielded an EC (150% of control) in data set [1] (setting [2]) of 3.3 µM.
As for `Cc1c(C(N)=O)n(C)c2c(-c3ccc(C(F)(F)F)cc3)cc(Cl)cc12` [Example 18, 5-Chloro-1,3-dimethyl-7-[4-(trifluoromethyl)phenyl]indole-2-carboxamide], the melting point came to 206 °C. This compound also showed an EC (150% of control) in data set [1] (setting [2]) of 2.8 µM.
For the compound `Cc1c(C(N)=O)[nH]c2c(-c3ccc(OC(F)(F)F)cc3)cc(C#N)cc12` [Example 19, 5-Cyano-3-methyl-7-[4-(trifluoromethoxy)-phenyl]-1H-indole-2-carboxamide], the melting point came to 207 °C. The same compound registered an EC (150% of control) in data set [1] (setting [2]) of 1.13 µM.
Consider `Cc1c(C(N)=O)[nH]c2c(-c3ccc(C#N)cc3)cc(C#N)cc12` [Example 20, 5-Cyano-7-(4-cyanophenyl)-3-methyl-1H-indole-2-carboxamide], for which the melting point was found to be 294 °C. For the same compound, the EC (150% of control) in data set [1] (setting [2]) is 0.24 µM.
Compound `Cc1c(C(N)=O)n(C)c2c(-c3ccc(OC(F)(F)F)cc3)cc(C#N)cc12` [Example 21, 5-Cyano-1,3-dimethyl-7-[4-(trifluoromethoxy)phenyl]indole-2-carboxamide] gave a melting point of 106 °C. In data set [1] (setting [2]), the EC (150% of control) came to 0.43 µM.
On to `Cc1c(C(N)=O)n(C)c2c(-c3ccc(C#N)cc3)cc(C#N)cc12` [Example 22, 5-Cyano-7-(4-cyanophenyl)-1,3-dimethylindole-2-carboxamide], for which the melting point is 226 °C. Further, the EC (150% of control) in data set [1] (setting [2]) was 0.6 µM.
In the case of `Cc1c(C(N)=O)[nH]c2c(-c3ccc(C#N)cc3)cc(Cl)cc12` [Example 23], the melting point was found to be 267 °C. In data set [1] (setting [2]), this compound displayed an EC (150% of control) of 0.28 µM.
`Cc1c(C(N)=O)[nH]c2c(-c3ccc(OC(F)(F)F)cc3)cc(Cl)cc12` [Example 24, 5-Chloro-3-methyl-7-[4-(trifluoromethoxy)phenyl]-1H-indole-2-carboxamide] yielded a melting point of 149 °C. Further, the EC (150% of control) in data set [1] (setting [2]) is 1.32 µM.
Regarding `Cc1c(C(N)=O)[nH]c2c(-c3ccc(F)cc3F)cc(Cl)cc12` [Example 25, 5-Chloro-7-(2,4-difluorophenyl)-3-methyl-1H-indole-2-carboxamide], the melting point was determined as 196 °C. Also, the EC (150% of control) in data set [1] (setting [2]) is 0.21 µM.
Taken in the same sequence, the figures for `Cc1c(C(N)=O)[nH]c2c(-c3ccc(Cl)cc3Cl)cc(Cl)cc12` [Example 26, 5-Chloro-7-(2,4-dichlorophenyl)-3-methyl-1H-indole-2-carboxamide] were 195 °C and 0.33 µM.
Consider `Cc1c(C(N)=O)n(C)c2c(-c3ccc(OC(F)(F)F)cc3)cc(Cl)cc12` [Example 27, 5-Chloro-1,3-dimethyl-7-[4-(trifluoromethoxy)-phenyl]indole-2-carboxamide], for which the melting point worked out at 181 °C. In addition, the EC (150% of control) in data set [1] (setting [2]) came out at 3.67 µM.
Regarding `Cc1c(C(N)=O)n(C)c2c(-c3ccc(C#N)cc3)cc(Cl)cc12` [Example 28, 5-Chloro-7-(4-cyanophenyl)-1,3-dimethylindole-2-carboxamide], the melting point turned out to be 199 °C. Moreover, in data set [1] (setting [2]), the EC (150% of control) turned out to be 1.06 µM.
`Cc1c(C(N)=O)n(C)c2c(-c3ccc(F)cc3F)cc(Cl)cc12` [Example 29, 5-Chloro-7-(2,4-difluorophenyl)-1,3-dimethylindole-2-carboxamide] returned a melting point of 220 °C. This compound displayed an EC (150% of control) in data set [1] (setting [2]) of 0.23 µM.
Taken in the same sequence, the figures for `Cc1c(C(N)=O)n(C)c2c(-c3ccc(Cl)cc3Cl)cc(Cl)cc12` [Example 30, 5-Chloro-7-(2,4-dichlorophenyl)-1,3-dimethylindole-2-carboxamide] were 221 °C and 0.93 µM.
